Key:
HIV-1 virus = experiment: Infectivity of HIV-1 treated 10 minutes with product for normal human T lymphocytes (reverse transcriptase activity, ATI, in culture supernatants); format: cell-based
Source text: Infectivity is studied on T lymphocytes obtained from peripheral blood of a healthy human donor and separated on a Ficoll gradient.
The lymphocytes are stimulated for 3 days by phytohaemaglutinin P (PHA P) diluted to 1/500 and cultivated in a complete medium. The blastic cells T are infected by the virus, treated or not, in order to show up residual infectious strength.
The viruses obtained from a supernatant culture of an HIV-1 infected CEM line. This T lymphoblastoid line infected by HIV-1 is used for viral production.
The titer of the supernatant substances used is evaluated after quantitative analysis of the reverse transcriptase activity (ATI) of the virus.
In the following tests, a supernatant substance was used, the ATI of which was 1.8×10^6 cpm/ml.
Preparation of the viral solution: several tubes containing 1 ml viral supernatant, ATI 1.8×10^6 cmp/ml are, concentrated by ultracentrifugation. The resulting virus residues are taken up either by each of the different dilutions of QACs produced in sterile bidistilled water or by water (untreated control virus).
Treatment of viral preparations: the concentrated viral preparations are all treated according to the following procedure:
Treated virus samples: the virus residues concentrated by ultracentrifugation are resuspended in 100, μl of each of the concentrations in terms of products (QACs) studied and incubated for 10 minutes.
Control viral sample: untreated control virus: the product is replaced by 100 μl of sterile bidistilled water.
Following this 10 minute incubation time, the virus present in each sample is rinsed and then reconcentrated by addition of 12 ml of RPMI 1640 medium and ultracentrifugation. The virus residues are then taken up in 1 ml of complete medium and used for infecting normal human T lymphocytes.
Measurement of the infectivity of the samples: 4×10^6 normal human T lymphocytes are infected with each of the treated viral preparations or controls mentioned hereinabove. Infection of the T cells is carried out according to a previously described method (F. Barre Sinoussi et al. Science, 1983, 220:868-871): to sum up, 4×10^6 cells in suspension in 1 ml of complete medium are incubated with 1 ml of each of the treated vial preparations or controls for 1 hour at 37° C.
After two washings using several millilitres of culture medium, the cellular suspensions are adjusted to the concentration of 1×10^6 cells per ml. The day of the infection is regarded as day 0.
Viral production during the course of time is determined by measuring the reverse transcriptase activity present in the culture supernatants using the procedure described below.
This quantitative analysis makes it possible to evaluate the presence of noninactivated residual virus in the staring sample. It is carried out on a basis of 1 ml of culture supernatant taken every 2 or 3 days and ultracentrifuged.
The enzymatic activities are measured in 50 μl of a reaction mixture containing 50 mM Tris pH 7.8, 20 mM MgCl2, 20 mM KCl, 2 mM dithiotreitol, 0.25 OD/ml, oligo dT, 0.25 OD/ml poly rA, 0.1% Triton×100 and 2.5 μCi 3H DTTP.
After incubation for 1 hour at 37° C., the reaction is stopped by the addition of 10 μl of 0.2 M EDTA and the samples are deposited on DE81 membranes.
After several washings using 5% Na2HPO4, then by distilled water, the membranes are dried and the radioactivity measured by means of a p scintillation counter (PACKARD).

S. aureus ATCC 6538 = experiment: Test 2 (DGHM), action as a function of disinfection time at 22° C., 8 × 10^8 organisms/ml; format: cell-based, Staphylococcus aureus
Protocol: Another test was carried out a basis of the following solutions • 100 ml of a 0.1% solution of chlorohexidine digluconate (pH 6); and • 100 ml of a 0.1% solution of Bardac22®.
The activity of these solutions, alone or in combination, was more particularly tested in respect of Staphylococcus aureus ATCC 6538, Escherichia coli ATCC 11229 and Candida albicans ATCC 10231.
The tests were conducted in accordance with the procedure described in Chapter I/2.1 and 2.2 of Tichtlinien für die Prüfung und Bewertung chemischer Desinfektionsverfahren der DGHM/Guidelines for Testing and Evaluating Chemical Disinfection Processes of DGHM as at 1.1, 1981.

With [H]/N=C(\N/C(=N/[H])NCCCCCCNC(=N)NC(=N)Nc1ccc(Cl)cc1)Nc1ccc(Cl)cc1 [Chlorhexidine, chlorohexidine digluconate, reference compound] the ATI in supernatant (HIV-1 virus; Chlorhexidine 0.005%, J3) was 360 cpm/ml, the ATI in supernatant (HIV-1 virus; Chlorhexidine 0.005%, J10) was 580 cpm/ml and the ATI in supernatant (HIV-1 virus; Chlorhexidine 0.005%, J30) was 720 cpm/ml. It also gave an ATI in supernatant (HIV-1 virus; Chlorhexidine 0.01%, J10) of 200 cpm/ml, an ATI in supernatant (HIV-1 virus; Chlorhexidine 0.01%, J13) of 250 cpm/ml and an ATI in supernatant (HIV-1 virus; Chlorhexidine 0.01%, J17) of 230 cpm/ml. The ATI in supernatant (HIV-1 virus; Chlorhexidine 0.01%, J27) was 420 cpm/ml, the growth (S. aureus ATCC 6538; 0.05% vol/vol, 1 min) was “+” and the growth (S. aureus ATCC 6538; 0.05% vol/vol, 3 min) was “+”. For the same compound, the growth (S. aureus ATCC 6538; 0.05% vol/vol, 5 min) was “+”, the growth (S. aureus ATCC 6538; 0.05% vol/vol, 15 min) was “+” and the growth (S. aureus ATCC 6538; 0.05% vol/vol, 30 min) was “+”. For the same compound, the growth (S. aureus ATCC 6538; 0.05% vol/vol, 60 min) was “+”, the growth (S. aureus ATCC 6538; 0.1% vol/vol, 1 min) was “+” and the growth (S. aureus ATCC 6538; 0.1% vol/vol, 3 min) was “+”. The growth (S. aureus ATCC 6538; 0.1% vol/vol, 5 min) was “+”, the growth (S. aureus ATCC 6538; 0.1% vol/vol, 15 min) was “+” and the growth (S. aureus ATCC 6538; 0.1% vol/vol, 30 min) was “+”. The growth (S. aureus ATCC 6538; 0.1% vol/vol, 60 min) was “+”, the growth (S. aureus ATCC 6538; 0.5% vol/vol, 1 min) was “+” and the growth (S. aureus ATCC 6538; 0.5% vol/vol, 3 min) was “+”. The growth (S. aureus ATCC 6538; 0.5% vol/vol, 5 min) was “+”, the growth (S. aureus ATCC 6538; 0.5% vol/vol, 15 min) was “+” and the growth (S. aureus ATCC 6538; 0.5% vol/vol, 30 min) was “+”. For the same compound, the growth (S. aureus ATCC 6538; 0.5% vol/vol, 60 min) was “+”, the growth (S. aureus ATCC 6538; 1% vol/vol, 1 min) was “+” and the growth (S. aureus ATCC 6538; 1% vol/vol, 3 min) was “+”. The growth (S. aureus ATCC 6538; 1% vol/vol, 5 min) was “+”, the growth (S. aureus ATCC 6538; 1% vol/vol, 15 min) was “+” and the growth (S. aureus ATCC 6538; 1% vol/vol, 30 min) was “+”. For the same compound, the growth (S. aureus ATCC 6538; 1% vol/vol, 60 min) was “+”, the growth (S. aureus ATCC 6538; 5% vol/vol, 1 min) was “+” and the growth (S. aureus ATCC 6538; 5% vol/vol, 3 min) was “+”. For the same compound, the growth (S. aureus ATCC 6538; 5% vol/vol, 5 min) was “+”, the growth (S. aureus ATCC 6538; 5% vol/vol, 15 min) was “+” and the growth (S. aureus ATCC 6538; 5% vol/vol, 30 min) was “+”. The growth (S. aureus ATCC 6538; 5% vol/vol, 60 min) was “+”, the growth (S. aureus ATCC 6538; 10% vol/vol, 1 min) was “+” and the growth (S. aureus ATCC 6538; 10% vol/vol, 3 min) was “+”. The growth (S. aureus ATCC 6538; 10% vol/vol, 5 min) was “+”, the growth (S. aureus ATCC 6538; 10% vol/vol, 15 min) was “+” and the growth (S. aureus ATCC 6538; 10% vol/vol, 30 min) was “+”. The growth (S. aureus ATCC 6538; 10% vol/vol, 60 min) was “−”, the growth (S. aureus ATCC 6538; 25% vol/vol, 1 min) was “+” and the growth (S. aureus ATCC 6538; 25% vol/vol, 3 min) was “+”. The growth (S. aureus ATCC 6538; 25% vol/vol, 5 min) was “+”, the growth (S. aureus ATCC 6538; 25% vol/vol, 15 min) was “+” and the growth (S. aureus ATCC 6538; 25% vol/vol, 30 min) was “−”. The growth (S. aureus ATCC 6538; 25% vol/vol, 60 min) was “−”.
